Measurements from US9409905B2, “Antibacterial compounds and methods for use” (PTC THERAPEUTICS, INC., priority 2011, dated 2016).
Converted amounts (≈) assume the structure as drawn.

How the values were obtained:
[1] = test system: E. coli 25922; test: Antibacterial activity, microbroth dilution MIC (Table 1); assay type: cell-based, Escherichia coli; conditions: Escherichia coli; microbroth dilution; control Gram-negative E. coli 25922 strain; read-out: MIC, 25922
Procedure, shortened: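 Broth microdilution; endpoint = no macroscopic growth; value = lowest inhibiting concn, μg/mL.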

[2] = test system: E. coli LZ3111; test: Antibacterial activity, MIC, quinolone resistant strain (Table 2); assay type: cell-based; conditions: Escherichia coli, LZ3111, read-out: MIC LZ3111
Procedure, shortened: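 MIC values (μg/mL) came from a microbroth dilution assay, scored as the lowest drug concentration at which no growth was visible by eye.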

[3] = test system: Haemophilus influenzae (H. influenzae) 49247; test: Antibacterial activity, MIC (Table 6); assay type: cell-based
Excerpt: (§1) The antibacterial activity from a microbroth dilution method may be presented as the minimum inhibitory concentration (MIC in μg/mL). The MIC value is the lowest concentration of drug which prevents macroscopically visible growth under test conditions.
(§2) Antibacterial activity of test compounds against the Gram-negative bacteria Haemophilus influenzae (H. influenzae) 49247 is shown in Table 6, Moraxella catarrhalis (M. catarrhalis) 25238 is shown in Table 7 and Neisseria meningitidis (N. meningitidis) 13090 is shown in Table 8.

[4] = test system: E. coli ELZ4000; test: Antibacterial activity, MIC, multi-drug resistant clinical isolate (Table 3); assay type: cell-based; conditions: Escherichia coli, ELZ4000, read-out: MIC ELZ4000
Procedure, shortened: (§3)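 Compounds were serially diluted in broth microdilution format and growth was scored visually; the MIC is the lowest concentration at which no macroscopically visible growth occurred, expressed in μg/mL.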

[5] = test system: E. coli ELZ4251; test: as above; assay type: cell-based; conditions: Escherichia coli
Procedure, shortened: as §3

[6] = test system: Escherichia coli (E. coli) BAS849; test: Antibacterial activity, microbroth dilution MIC (Table 1); assay type: cell-based; conditions: microbroth dilution, super sensitive Gram-negative E. coli BAS849, read-out: MIC, BAS849
Procedure, shortened: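 Microbroth dilution was used. MIC, in μg/mL, is the lowest drug concentration preventing macroscopically visible growth under the test conditions.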

[7] = test system: Staphylococcus aureus (S. aureus) 29213; test: as above; assay type: cell-based; conditions: microbroth dilution, Gram-positive S. aureus 29213, read-out: MIC, 29213
Procedure, shortened: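 Lowest concentration stopping macroscopically visible growth under test conditions, by broth microdilution, defines the MIC (μg/mL).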

[8] = test system: Pseudomonas aeruginosa (P. aeruginosa) 27853; test: Antibacterial activity, MIC (Table 5); assay type: cell-based; conditions: P. aeruginosa 27853, read-out: MIC, 27853
Procedure, shortened: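 Values are MICs in μg/mL, read as the lowest concentration at which no growth is visible by eye. They were determined by a microbroth dilution method.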

[9] = test system: Neisseria meningitidis (N. meningitidis) 13090; test: Antibacterial activity, MIC (Table 8); assay type: cell-based
Excerpt: as §1, §2

[10] = test system: Acinetobacter baumannii (A. baumannii) BAA747; test: Antibacterial activity, MIC (Table 4); assay type: cell-based; conditions: A. baumannii BAA747, read-out: MIC, BAA747
Procedure, shortened: (§4)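 Activity was measured by microbroth dilution. The MIC, in μg/mL, is the lowest drug concentration that prevents macroscopically visible growth under the test conditions. The resistant strains are multi-drug resistant clinical isolates.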

[11] = test system: Klebsiella pneumoniae (K. pneumoniae) 35657; test: Antibacterial activity, MIC (Table 4); assay type: cell-based; conditions: K. pneumoniae 35657, read-out: MIC, 35657
Procedure, shortened: as §4

[12] = test system: A. baumannii MXX2240; test: Antibacterial activity, MIC, resistant strain (Table 4); assay type: cell-based; conditions: Acinetobacter baumannii, MXX2240; resistant A. baumannii MMX2240, multi-drug resistant clinical isolate; read-out: MIC, MMX2240
Procedure, shortened: as §4

[13] = test system: K. pneumoniae MXX1232; test: as above; assay type: cell-based; conditions: Klebsiella pneumoniae, MXX1232; resistant K. pneumoniae MMX1232, multi-drug resistant clinical isolate; read-out: MIC, MMX1232
Procedure, shortened: as §4

Compound | MIC [1] | MIC [2] | MIC [3] | MIC [4] | MIC [5] | MIC [6] | MIC [7] | MIC [8] | MIC [9] | MIC [10] | MIC [11] | MIC [12] | MIC [13]
CCc1c(-c2ccc3c(c2)oc(=O)n3C)[nH]c(=O)c(C(=O)O)c1O [Cpd 11, 5-ethyl-4-hydroxy-6-(3-methyl-2-oxo-2,3-dihydrobenzo[d]oxazol-6-yl)-2-oxo-1,2-dihydropyridine-3-carboxylic acid] | 1 to 3.5 µg/mL (≈ 3.03 to 10.6 µM) | 12.5 to 150 µg/mL (≈ 37.8 to 454 µM) | < 1 µg/mL | 12.5 to 150 µg/mL (≈ 37.8 to 454 µM) | 12.5 to 150 µg/mL (≈ 37.8 to 454 µM) | < 1 µg/mL | 12.5 to 150 µg/mL (≈ 37.8 to 454 µM) | – | – | – | – | – | –
CNC1Cc2cc3cc(-c4[nH]c(=O)c(C(=O)O)c(O)c4C)ccc3n2C1.Cl (stereo not shown) [Cpd 415, 4-hydroxy-5-methyl-6-(2-(methylamino)-2,3-dihydro-1H-pyrrolo[1,2-a]indol-7-yl)-2-oxo-1,2-dihydropyridine-3-carboxylic acid hydrochloride] | 3.5 to 12.5 µg/mL | < 1 µg/mL | – | 3.5 to 12.5 µg/mL | 1 to 3.5 µg/mL | 1 to 3.5 µg/mL | 12.5 to 150 µg/mL | 12.5 to 150 µg/mL | 1 to 3.5 µg/mL | 12.5 to 150 µg/mL | 3.5 to 12.5 µg/mL | 3.5 to 12.5 µg/mL | 12.5 to 150 µg/mL
Cc1c(-c2ccc3c(c2)cc2n3CC(N)C2)[nH]c(=O)c(C(=O)O)c1O.Cl (stereo not shown) [Cpd 412, 6-(2-amino-2,3-dihydro-1H-pyrrolo[1,2-a]indol-7-yl)-4-hydroxy-5-methyl-2-oxo-1,2-dihydropyridine-3-carboxylic acid hydrochloride] | 3.5 to 12.5 µg/mL | 1 to 3.5 µg/mL | – | 3.5 to 12.5 µg/mL | 3.5 to 12.5 µg/mL | 1 to 3.5 µg/mL | 12.5 to 150 µg/mL | 12.5 to 150 µg/mL | 1 to 3.5 µg/mL | 12.5 to 150 µg/mL | 3.5 to 12.5 µg/mL | 12.5 to 150 µg/mL | 12.5 to 150 µg/mL
Cc1c(-c2ccc3c(c2)cc(CNC2CCC2)n3C)[nH]c(=O)c(C(=O)O)c1O [Cpd 354, 6-(2-((cyclobutylamino)methyl)-1-methyl-1H-indol-5-yl)-4-hydroxy-5-methyl-2-oxo-1,2-dihydropyridine-3-carboxylic acid] | 1 to 3.5 µg/mL (≈ 2.62 to 9.18 µM) | < 1 µg/mL | – | 3.5 to 12.5 µg/mL (≈ 9.18 to 32.8 µM) | < 1 µg/mL | < 1 µg/mL | 12.5 to 150 µg/mL (≈ 32.8 to 393 µM) | 12.5 to 150 µg/mL (≈ 32.8 to 393 µM) | < 1 µg/mL | 1 to 3.5 µg/mL (≈ 2.62 to 9.18 µM) | 1 to 3.5 µg/mL (≈ 2.62 to 9.18 µM) | < 1 µg/mL | 12.5 to 150 µg/mL (≈ 32.8 to 393 µM)
CCc1c(-c2ccc3c(c2)cc(CN2CCC(O)C2)n3C)[nH]c(=O)c(C(=O)O)c1O (stereo not shown) [Cpd 178, 5-ethyl-4-hydroxy-6-(2-((3-hydroxypyrrolidin-1-yl)methyl)-1-methyl-1H-indol-5-yl)-2-oxo-1,2-dihydropyridine-3-carboxylic acid] | < 1 µg/mL | 3.5 to 12.5 µg/mL (≈ 8.51 to 30.4 µM) | – | 12.5 to 150 µg/mL (≈ 30.4 to 365 µM) | 12.5 to 150 µg/mL (≈ 30.4 to 365 µM) | < 1 µg/mL | 3.5 to 12.5 µg/mL (≈ 8.51 to 30.4 µM) | 3.5 to 12.5 µg/mL (≈ 8.51 to 30.4 µM) | – | 1 to 3.5 µg/mL (≈ 2.43 to 8.51 µM) | 3.5 to 12.5 µg/mL (≈ 8.51 to 30.4 µM) | 12.5 to 150 µg/mL (≈ 30.4 to 365 µM) | 12.5 to 150 µg/mL (≈ 30.4 to 365 µM)
CCc1c(-c2ccc3ccn(C)c3c2)[nH]c(=O)c(C(=O)O)c1O [Cpd 8, 5-ethyl-4-hydroxy-6-(1-methyl-1H-indol-6-yl)-2-oxo-1,2-dihydropyridine-3-carboxylic acid] | 12.5 to 150 µg/mL (≈ 40 to 480 µM) | 3.5 to 12.5 µg/mL (≈ 11.2 to 40 µM) | – | 12.5 to 150 µg/mL (≈ 40 to 480 µM) | 12.5 to 150 µg/mL (≈ 40 to 480 µM) | 1 to 3.5 µg/mL (≈ 3.2 to 11.2 µM) | 3.5 to 12.5 µg/mL (≈ 11.2 to 40 µM) | 12.5 to 150 µg/mL (≈ 40 to 480 µM) | – | 12.5 to 150 µg/mL (≈ 40 to 480 µM) | 12.5 to 150 µg/mL (≈ 40 to 480 µM) | 12.5 to 150 µg/mL (≈ 40 to 480 µM) | 12.5 to 150 µg/mL (≈ 40 to 480 µM)
CCc1c(-c2ccc3c(c2)cc(CN2CCCC2)n3C)[nH]c(=O)c(C(=O)O)c1O [Cpd 164, 5-ethyl-4-hydroxy-6-(1-methyl-2-(pyrrolidin-1-ylmethyl)-1H-indol-5-yl)-2-oxo-1,2-dihydropyridine-3-carboxylic acid] | < 1 µg/mL | 3.5 to 12.5 µg/mL (≈ 8.85 to 31.6 µM) | – | 12.5 to 150 µg/mL (≈ 31.6 to 379 µM) | 12.5 to 150 µg/mL (≈ 31.6 to 379 µM) | < 1 µg/mL | 3.5 to 12.5 µg/mL (≈ 8.85 to 31.6 µM) | 3.5 to 12.5 µg/mL (≈ 8.85 to 31.6 µM) | – | < 1 µg/mL | 3.5 to 12.5 µg/mL (≈ 8.85 to 31.6 µM) | 3.5 to 12.5 µg/mL (≈ 8.85 to 31.6 µM) | 12.5 to 150 µg/mL (≈ 31.6 to 379 µM)
